Measured values as given in patent US6642276B2, “Controlled release macrolide pharmaceutical formulations” (M/S Ind-Swift Limited, priority 2001, dated 2003).

Assays:
Format in all cases: physicochemical
[1] = pH solubility studies (mg of drug dissolved per ml of buffer)
[2] = Stability studies of bulk drug, physical mixture and citrate salt on storage
[3] = pH of 0.2% suspension in water: methanol (19:1)

SMILES: CC[C@H]1OC(=O)[C@H](C)[C@@H](O[C@H]2C[C@@](C)(OC)[C@@H](O)[C@H](C)O2)[C@H](C)[C@@H](O[C@@H]2O[C@H](C)C[C@H](N(C)C)[C@H]2O)[C@](C)(OC)C[C@@H](C)C(=O)[C@H](C)[C@@H](O)[C@]1(C)O [Clarithromycin, 6-O-methylerythromycinA]
- pH solubility studies (mg of Clarithromycin dissolved per ml of buffer) ([1]; pH 3.0 (KCl Buffer)): 2.00 mg/ml
- pH solubility studies (mg of Clarithromycin dissolved per ml of buffer) ([1]; pH 4.0 (KCl Buffer)): 0.33 mg/ml
- pH solubility studies (mg of Clarithromycin dissolved per ml of buffer) ([1]; pH 5.0 (Phosphate Buffer)): 10.09 mg/ml
- pH solubility studies (mg of Clarithromycin dissolved per ml of buffer) ([1]; pH 6.0 (Phosphate Buffer)): 7.46 mg/ml
- pH solubility studies (mg of Clarithromycin dissolved per ml of buffer) ([1]; pH 7.0 (Phosphate Buffer)): 2.00 mg/ml
- Stability Studies: change / Degradation of Clarithromycin ([2]; 40° C. and 75% RH-2 Months): No Change/No
- Stability Studies: change / Degradation of Clarithromycin ([2]; 40° C. and 75% RH-3 Months): No Change/No
- Stability Studies: change / Degradation of Clarithromycin ([2]; 40° C. and 75% RH-4 Months): No Change/No
- Stability Studies: change / Degradation of Clarithromycin ([2]; 40° C. and 75% RH-5 Months): No Change/No
- Stability Studies: change / Degradation of Clarithromycin ([2]; 60° C.-1 month): No Change/No
- Stability Studies: change / Degradation of Clarithromycin ([2]; 60° C.-2 months): No Change/No
- Stability Studies: change / Degradation of Clarithromycin ([2]; 60° C.-3 months): No Change/No
- Stability Studies: change / Degradation of Clarithromycin ([2]; 85° C.-1 day): No Change/No
- Stability Studies: change / Degradation of Clarithromycin ([2]; 85° C.-4 days): No Change/No
- Stability Studies: change / Degradation of Clarithromycin ([2]; 85° C.-7 days): No Change/No
- Stability Studies: change / Degradation of Clarithromycin ([2]; 85°-15 days): No Change/No
- Stability Studies: change / Degradation of Clarithromycin ([2]; RT-3 Months): No Change/No
- Stability Studies: change / Degradation of Clarithromycin ([2]; RT-6 Months): No Change/No
- Stability Studies: change / Degradation of Clarithromycin ([2]; RT-9 Months): No Change/No
- Stability Studies: change / Degradation of Clarithromycin ([2]; RT-12 Months): No Change/No
- pH of 0.2% suspension in water: methanol (19:1) [3]: 7.5 to 10.0
